According to patent US20100168102A9, “Amide Derivatives as Kinase Inhibitors” (Devgen NV, priority 2005, published 2010):

Key:
[1] = target: T1, PKC epsilon (Homo sapiens, UniProt Q02156); experiment: Biochemical assay for PKC epsilon (fluorescence polarization, Protein Kinase C Assay Kit, Red); settings: compounds of Formula XIV, Table 3; read-out: IC50 μM PKCε
T1 construct: purchased Invitrogen P2282
T1 sequence (Q02156 1-737): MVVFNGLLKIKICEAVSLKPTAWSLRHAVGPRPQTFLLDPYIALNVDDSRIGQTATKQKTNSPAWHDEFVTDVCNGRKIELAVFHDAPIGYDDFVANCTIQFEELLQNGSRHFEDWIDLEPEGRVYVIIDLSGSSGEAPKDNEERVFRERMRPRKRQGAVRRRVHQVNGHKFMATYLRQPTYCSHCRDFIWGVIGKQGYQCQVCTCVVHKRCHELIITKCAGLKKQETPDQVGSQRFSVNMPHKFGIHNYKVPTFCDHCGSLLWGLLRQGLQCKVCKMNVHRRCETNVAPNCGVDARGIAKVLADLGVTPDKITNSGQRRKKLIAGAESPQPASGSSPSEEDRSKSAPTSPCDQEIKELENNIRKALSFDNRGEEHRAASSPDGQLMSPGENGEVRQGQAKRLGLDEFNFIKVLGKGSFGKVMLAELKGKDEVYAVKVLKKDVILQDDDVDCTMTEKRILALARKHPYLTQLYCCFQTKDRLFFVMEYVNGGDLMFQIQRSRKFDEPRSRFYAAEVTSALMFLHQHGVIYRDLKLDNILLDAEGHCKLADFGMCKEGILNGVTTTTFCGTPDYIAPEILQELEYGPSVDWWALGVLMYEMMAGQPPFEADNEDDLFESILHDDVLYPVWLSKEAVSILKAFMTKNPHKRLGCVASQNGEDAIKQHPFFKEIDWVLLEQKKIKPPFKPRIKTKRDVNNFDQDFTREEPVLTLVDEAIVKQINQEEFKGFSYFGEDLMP
How it was run: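 PKC epsilon at 10 ng/ml final was preincubated 30 min at room temperature with compound in HEPES pH 7.4 with DTT and Triton X-100. ATP/protein substrate was then added in buffer with MgCl2 and CaCl2 for 80 min. The reaction was stopped with EDTA, phosphorylation was detected by fluorescence polarization with rhodamine tracer and anti-phosphoserine antibody, and IC50 values came from curve fits.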

[2] = target: T2, human ROCKα/ROCKII mix (Homo sapiens, UniProt O75116); experiment: Biochemical assay for ROCK (fluorescence polarization, ROCK IMAP Kit); settings: compounds of Formula XIV, Table 3
T2 construct: purchased Upstate Biotechnology 14-451
T2 sequence (O75116 11-552 limits assumed): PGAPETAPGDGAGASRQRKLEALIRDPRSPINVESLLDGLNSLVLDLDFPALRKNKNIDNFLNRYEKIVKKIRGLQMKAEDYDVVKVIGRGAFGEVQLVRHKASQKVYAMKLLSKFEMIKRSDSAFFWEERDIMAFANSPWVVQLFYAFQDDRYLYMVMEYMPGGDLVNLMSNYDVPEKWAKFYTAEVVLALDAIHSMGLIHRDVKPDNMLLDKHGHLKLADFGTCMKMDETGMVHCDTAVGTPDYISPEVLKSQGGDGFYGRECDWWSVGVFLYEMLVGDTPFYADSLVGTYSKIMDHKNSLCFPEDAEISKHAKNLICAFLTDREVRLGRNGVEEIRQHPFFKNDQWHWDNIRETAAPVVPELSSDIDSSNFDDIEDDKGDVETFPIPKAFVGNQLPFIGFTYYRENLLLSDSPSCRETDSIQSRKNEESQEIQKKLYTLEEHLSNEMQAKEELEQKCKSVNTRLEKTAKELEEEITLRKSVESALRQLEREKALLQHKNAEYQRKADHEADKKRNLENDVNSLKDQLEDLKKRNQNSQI

SMILES | IC50 [1] | IC50 [2]
CC(CNC(=O)CC(N)c1ccc(C(=O)Nc2ccncc2)cc1)c1ccccc1 (centres unmarked) [Compound 283, 4-[1-Amino-2-(2-phenyl-propyl-carbamoyl)-ethyl]-N-pyridin-4-yl-benzamide] | 0.5 to 5 µM | 0.05 to 0.5 µM
Cc1ccc(CCNC(=O)CC(N)c2ccc(C(=O)Nc3ccncc3)cc2)cc1 (centres unmarked) [Compound 284, 4-[1-Amino-2-(2-p-tolyl-ethyl-carbamoyl)-ethyl]-N-pyridin-4-yl-benzamide] | 5 to 50 µM | 0.05 to 0.5 µM
CC(C)(C)c1ccc(CCNC(=O)CC(N)c2ccc(C(=O)Nc3ccncc3)cc2)cc1 (centres unmarked) [Compound 285, 4-{1-Amino-2-[2-(4-tert-butyl-phenyl)-ethylcarbamoyl]-ethyl}-N-pyridin-4-yl-benzamide] | 5 to 50 µM | 0.05 to 0.5 µM
CCOc1ccccc1CCNC(=O)CC(N)c1ccc(C(=O)Nc2ccncc2)cc1 (centres unmarked) [Compound 288, 4-{1-Amino-2-[2-(2-ethoxy-phenyl)-ethylcarbamoyl]-ethyl}-N-pyridin-4-yl-benzamide] | 0.5 to 5 µM | 0.05 to 0.5 µM
COc1cccc(CCNC(=O)CC(N)c2ccc(C(=O)Nc3ccncc3)cc2)c1 (centres unmarked) [Compound 289, 4-{1-Amino-2-[2-(3-methoxy-phenyl)-ethylcarbamoyl]-ethyl}-N-pyridin-4-yl-benzamide] | 0.5 to 5 µM | 0.05 to 0.5 µM
CCOc1ccc(CCNC(=O)CC(N)c2ccc(C(=O)Nc3ccncc3)cc2)cc1 (centres unmarked) [Compound 290] | 0.5 to 5 µM | 0.05 to 0.5 µM
COc1ccc(CCNC(=O)CC(N)c2ccc(C(=O)Nc3ccncc3)cc2)cc1 (centres unmarked) [Compound 291, 4-{1-Amino-2-[2-(4-methoxy-phenyl)-ethylcarbamoyl]-ethyl}-N-pyridin-4-yl-benzamide] | 0.5 to 5 µM | 0.05 to 0.5 µM
NC(CC(=O)NCCc1ccc(Oc2ccccc2)cc1)c1ccc(C(=O)Nc2ccncc2)cc1 (centres unmarked) [Compound 292, 4-{1-Amino-2-[2-(4-phenoxy-phenyl)-ethylcarbamoyl]-ethyl}-N-pyridin-4-yl-benzamide] | 0.5 to 5 µM | 0.05 to 0.5 µM
COc1ccc(CCNC(=O)CC(N)c2ccc(C(=O)Nc3ccncc3)cc2)cc1OC (centres unmarked) [Compound 293, 4-{1-Amino-2-[2-(3,4-dimethoxy-phenyl)-ethylcarbamoyl]-ethyl}-N-pyridin-4-yl-benzamide] | 5 to 50 µM | 0.5 to 5 µM
COc1cc(CCNC(=O)CC(N)c2ccc(C(=O)Nc3ccncc3)cc2)cc(OC)c1 (centres unmarked) [Compound 294, 4-{1-Amino-2-[2-(3,5-dimethoxy-phenyl)-ethylcarbamoyl]-ethyl}-N-pyridin-4-yl-benzamide] | 5 to 50 µM | 0.05 to 0.5 µM
COc1ccc(OC)c(CCNC(=O)CC(N)c2ccc(C(=O)Nc3ccncc3)cc2)c1 (centres unmarked) [Compound 295, 4-{1-Amino-2-[2-(3,6-dimethoxy-phenyl)-ethylcarbamoyl]-ethyl}-N-pyridin-4-yl-benzamide] | 5 to 50 µM | 0.05 to 0.5 µM
NC(CC(=O)NCCc1ccccc1Cl)c1ccc(C(=O)Nc2ccncc2)cc1 (centres unmarked) [Compound 297, 4-{1-Amino-2-[2-(2-chloro-phenyl)-ethylcarbamoyl]-ethyl}-N-pyridin-4-yl-benzamide] | 0.5 to 5 µM | 0.05 to 0.5 µM
NC(CC(=O)NCCc1cccc(Cl)c1)c1ccc(C(=O)Nc2ccncc2)cc1 (centres unmarked) [Compound 298, 4-{1-Amino-2-[2-(3-chloro-phenyl)-ethylcarbamoyl]-ethyl}-N-pyridin-4-yl-benzamide] | 0.5 to 5 µM | 0.05 to 0.5 µM
NC(CC(=O)NCCc1ccc(Cl)cc1)c1ccc(C(=O)Nc2ccncc2)cc1 (centres unmarked) [Compound 299, 4-{1-Amino-2-[2-(4-chloro-phenyl)-ethylcarbamoyl]-ethyl}-N-pyridin-4-yl-benzamide] | 0.5 to 5 µM | 0.05 to 0.5 µM
CC(Cc1ccc(Cl)cc1)NC(=O)CC(N)c1ccc(C(=O)Nc2ccncc2)cc1 (centres unmarked) [Compound 300, 4-{1-Amino-2-(2-(4-chloro-phenyl)-1-methyl-ethylcarbamoyl]-ethyl}-N-pyridin-4-yl-benzamide] | 0.5 to 5 µM | 0.05 to 0.5 µM
CC(CNC(=O)CC(N)c1ccc(C(=O)Nc2ccncc2)cc1)c1ccc(Cl)cc1 (centres unmarked) [Compound 301, 4-{1-Amino-2-[2-(4-chloro-phenyl)-propylcarbamoyl]-ethyl}-N-pyridin-4-yl-benzamide] | 0.05 to 0.5 µM | 0.05 to 0.5 µM
NC(CC(=O)NCCc1c(Cl)cccc1Cl)c1ccc(C(=O)Nc2ccncc2)cc1 (centres unmarked) [Compound 302] | 0.5 to 5 µM | 0.05 to 0.5 µM

SMILES | IC50 [1] | IC50 [2]
NC(CC(=O)NCCc1ccc(Cl)cc1Cl)c1ccc(C(=O)Nc2ccncc2)cc1 (centres unmarked) [Compound 303, 4-{1-Amino-2-[2-(2,4-dichloro-phenyl)-ethylcarbamoyl]-ethyl}-N-pyridin-4-yl-benzamide] | 0.5 to 5 µM | 0.05 to 0.5 µM
NC(CC(=O)NCCc1ccc(Cl)c(Cl)c1)c1ccc(C(=O)Nc2ccncc2)cc1 (centres unmarked) [Compound 304] | 0.5 to 5 µM | 0.05 to 0.5 µM
NC(CC(=O)NCCc1ccccc1F)c1ccc(C(=O)Nc2ccncc2)cc1 (centres unmarked) [Compound 305, 4-{1-Amino-2-[2-(2-fluoro-phenyl)-ethylcarbamoyl]-ethyl}-N-pyridin-4-yl-benzamide] | 0.5 to 5 µM | 0.05 to 0.5 µM
NC(CC(=O)NCCc1cccc(F)c1)c1ccc(C(=O)Nc2ccncc2)cc1 (centres unmarked) [Compound 306] | 5 to 50 µM | 0.5 to 5 µM
NC(CC(=O)NCCc1ccc(F)cc1)c1ccc(C(=O)Nc2ccncc2)cc1 (centres unmarked) [Compound 307, 4-{1-amino-2-[2-(4-fluoro-phenyl)-ethylcarbamoyl]-ethyl}-N-pyridin-4-yl-benzamide] | 0.05 to 0.5 µM | 0.05 to 0.5 µM
CC(C)(Cc1ccc(F)cc1)NC(=O)CC(N)c1ccc(C(=O)Nc2ccncc2)cc1 (centres unmarked) [Compound 308, 4-{1-amino-2-[2-(4-fluoro-phenyl)-1,1-dimethyl-ethylcarbamoyl]-ethyl}-N-pyridin-4-yl-benzamide] | 0.05 to 0.5 µM | 0.05 to 0.5 µM
NC(CC(=O)NCCc1cccs1)c1ccc(C(=O)Nc2ccncc2)cc1 (centres unmarked) [Compound 311, 4-[1-amino-2-(2-thiophen-2-yl-ethylcarbamoyl)-ethyl]-N-pyridin-4-yl-benzamide] | 0.5 to 5 µM | 0.05 to 0.5 µM
NC(CC(=O)NCCc1c[nH]c2ccccc12)c1ccc(C(=O)Nc2ccncc2)cc1 (centres unmarked) [Compound 313, 4-{1-Amino-2-[2-(1H-indol-3-yl)-ethylcarbamoyl]-ethyl}-N-pyridin-4-yl-benzamide] | 0.5 to 5 µM | 0.05 to 0.5 µM
Cc1ccc2[nH]cc(CCNC(=O)CC(N)c3ccc(C(=O)Nc4ccncc4)cc3)c2c1 (centres unmarked) [Compound 314, 4-{1-Amino-2-[2-(5-methyl-1H-indol-3-yl)-ethylcarbamoyl]-ethyl}-N-pyridin-4-yl-benzamide] | 0.5 to 5 µM | 0.05 to 0.5 µM
CC(Cc1c[nH]c2ccccc12)NC(=O)CC(N)c1ccc(C(=O)Nc2ccncc2)cc1 (centres unmarked) [Compound 315, 4-{1-Amino-2-[2-(1H-indol-3-yl)-1-methyl-ethylcarbamoyl]-ethyl}-N-pyridin-4-yl-benzamide] | 0.5 to 5 µM | 0.05 to 0.5 µM
NC(CC(=O)Nc1ccccc1)c1ccc(C(=O)Nc2ccncc2)cc1 (centres unmarked) [Compound 316] | 0.5 to 5 µM | 0.05 to 0.5 µM
COc1ccc(NC(=O)CC(N)c2ccc(C(=O)Nc3ccncc3)cc2)cc1 (centres unmarked) [Compound 319, 4-[1-Amino-2-(4-methoxy-phenyl-carbamoyl)-ethyl]-N-pyridin-4-yl-benzamide] | 0.5 to 5 µM | 0.05 to 0.5 µM
NC(CC(=O)Nc1ccc(CO)cc1)c1ccc(C(=O)Nc2ccncc2)cc1 (centres unmarked) [Compound 320, 4-[1-Amino-2-(4-hydroxymethyl-phenyl-carbamoyl)-ethyl]-N-pyridin-4-yl-benzamide] | 0.5 to 5 µM | 0.05 to 0.5 µM
NC(CC(=O)Nc1ccc2[nH]ccc2c1)c1ccc(C(=O)Nc2ccncc2)cc1 (centres unmarked) [Compound 321, 4-[1-Amino-2-(1H-indol-5-ylcarbamoyl)-ethyl]-N-pyridin-4-yl-benzamide] | 0.5 to 5 µM | 0.05 to 0.5 µM
NC(CC(=O)Nc1ccc2cc[nH]c2c1)c1ccc(C(=O)Nc2ccncc2)cc1 (centres unmarked) [Compound 322, 4-[1-Amino-2-(1H-indol-6-ylcarbamoyl)-ethyl]-N-pyridin-4-yl-benzamide] | 0.05 to 0.5 µM | 0.05 to 0.5 µM
NC(CC(=O)Nc1cc(-c2ccco2)[nH]n1)c1ccc(C(=O)Nc2ccncc2)cc1 (centres unmarked) [Compound 323, 4-[1-Amino-2-(5-furan-2-yl-1H-pyrazol-3-ylcarbamoyl)-ethyl]-N-pyridin-4-yl-benzamide] | 0.5 to 5 µM | 0.05 to 0.5 µM
NC(CC(=O)NNC(=O)c1ccco1)c1ccc(C(=O)Nc2ccncc2)cc1 (centres unmarked) [Compound 325, 4-{1-amino-3[N′-(furan-2-carbonyl)-hydrazino]-3-oxo-propyl}-N-pyridin-4-yl-benzamide] | 0.5 to 5 µM | 0.05 to 0.5 µM
